Reference: PubChem BioAssay (NCI)
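These data come from cells grown in 96-well plates and exposed to compound for 48 hours at five concentrations. At the GI50, growth is halved. At the TGI there is no net growth.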

The compounds below were run on PC-3 prostate (assay: growth of human tumour cells (NCI), 48 h).

SMILES | TGI [µM] | GI50 [µM]
COc1cc(O)c2c(c1)C(=O)c1cc3c(c(O)c1C2=O)C(OC1OC(C)C(OC)C(O)C1OC)C(OC)C(C)(O)C3=O (stereo unspecified) | 14.1 | –
Cc1cc(N[C@@H]2CCC[C@H](Nc3ccnc4cc(Cl)ccc34)C2)nc(N2CCCCCC2)n1 | 4.05 | 1.81

These compounds were tested on CCRF-CEM leukemia (assay: growth of human tumour cells (NCI), 48 h).

SMILES | TGI [µM] | GI50 [µM]
COc1cc2c(cc1OC)C1C3CCCCC3CCN1CC2 (stereo unspecified) | > 100 | –
NC(=O)c1c(NC(=O)c2ccccc2)sc2c1CCC(=O)C2 | > 100 | 0.37
COc1cc(O)c2c(c1)C(=O)c1cc3c(c(O)c1C2=O)C(OC1OC(C)C(OC)C(O)C1OC)C(OC)C(C)(O)C3=O (stereo unspecified) | 41.6 | –
COc1cnc2c(c1)C(=O)c1c-2n(CCCN2CCOCC2)c(=O)c2cc(Cl)ccc12 | > 100 | 0.12
Cc1cc(N[C@@H]2CCC[C@H](Nc3ccnc4cc(Cl)ccc34)C2)nc(N2CCCCCC2)n1 | 10.7 | 1.59

These compounds were tested on NCI-H460 lung (assay: growth of human tumour cells (NCI), 48 h).

SMILES | TGI [µM] | GI50 [µM]
COc1cc2c(cc1OC)C1C3CCCCC3CCN1CC2 (stereo unspecified) | > 100 | –
NC(=O)c1c(NC(=O)c2ccccc2)sc2c1CCC(=O)C2 | > 100 | 3.04
COc1cc(O)c2c(c1)C(=O)c1cc3c(c(O)c1C2=O)C(OC1OC(C)C(OC)C(O)C1OC)C(OC)C(C)(O)C3=O (stereo unspecified) | 10.8 | –
COc1cnc2c(c1)C(=O)c1c-2n(CCCN2CCOCC2)c(=O)c2cc(Cl)ccc12 | > 100 | 0.0701
Cc1cc(N[C@@H]2CCC[C@H](Nc3ccnc4cc(Cl)ccc34)C2)nc(N2CCCCCC2)n1 | 3.2 | 1.58

Each compound was assayed on U251 CNS (assay: growth of human tumour cells (NCI), 48 h).

SMILES | TGI [µM] | GI50 [µM]
COc1cc2c(cc1OC)C1C3CCCCC3CCN1CC2 (stereo unspecified) | > 100 | –
NC(=O)c1c(NC(=O)c2ccccc2)sc2c1CCC(=O)C2 | 26.7 | 0.955
COc1cc(O)c2c(c1)C(=O)c1cc3c(c(O)c1C2=O)C(OC1OC(C)C(OC)C(O)C1OC)C(OC)C(C)(O)C3=O (stereo unspecified) | 22.8 | –
Cc1cc(N[C@@H]2CCC[C@H](Nc3ccnc4cc(Cl)ccc34)C2)nc(N2CCCCCC2)n1 | 3.41 | 1.73

These compounds were tested on HT29 colon (assay: growth of human tumour cells (NCI), 48 h).

SMILES | TGI [µM] | GI50 [µM]
COc1cc2c(cc1OC)C1C3CCCCC3CCN1CC2 (stereo unspecified) | > 100 | –
NC(=O)c1c(NC(=O)c2ccccc2)sc2c1CCC(=O)C2 | > 100 | 2.33
COc1cc(O)c2c(c1)C(=O)c1cc3c(c(O)c1C2=O)C(OC1OC(C)C(OC)C(O)C1OC)C(OC)C(C)(O)C3=O (stereo unspecified) | 11.8 | –
COc1cnc2c(c1)C(=O)c1c-2n(CCCN2CCOCC2)c(=O)c2cc(Cl)ccc12 | > 100 | 0.233
Cc1cc(N[C@@H]2CCC[C@H](Nc3ccnc4cc(Cl)ccc34)C2)nc(N2CCCCCC2)n1 | 2.98 | 1.05

What follows are compounds tested on IGROV1 ovarian (assay: growth of human tumour cells (NCI), 48 h).

SMILES | TGI [µM] | GI50 [µM]
COc1cc2c(cc1OC)C1C3CCCCC3CCN1CC2 (stereo unspecified) | > 100 | –
NC(=O)c1c(NC(=O)c2ccccc2)sc2c1CCC(=O)C2 | 13.3 | 1.01
COc1cc(O)c2c(c1)C(=O)c1cc3c(c(O)c1C2=O)C(OC1OC(C)C(OC)C(O)C1OC)C(OC)C(C)(O)C3=O (stereo unspecified) | 6.5 | –

Each compound was assayed on OVCAR-4 ovarian (assay: growth of human tumour cells (NCI), 48 h).

SMILES | TGI [µM] | GI50 [µM]
COc1cc2c(cc1OC)C1C3CCCCC3CCN1CC2 (stereo unspecified) | > 100 | –
NC(=O)c1c(NC(=O)c2ccccc2)sc2c1CCC(=O)C2 | 2.01 | 0.732
COc1cc(O)c2c(c1)C(=O)c1cc3c(c(O)c1C2=O)C(OC1OC(C)C(OC)C(O)C1OC)C(OC)C(C)(O)C3=O (stereo unspecified) | 15.5 | –
COc1cnc2c(c1)C(=O)c1c-2n(CCCN2CCOCC2)c(=O)c2cc(Cl)ccc12 | > 100 | > 100
Cc1cc(N[C@@H]2CCC[C@H](Nc3ccnc4cc(Cl)ccc34)C2)nc(N2CCCCCC2)n1 | 5.04 | 1.72

These compounds were tested on EKVX NSCLC (assay: growth of human tumour cells (NCI), 48 h).

SMILES | TGI [µM] | GI50 [µM]
COc1cc2c(cc1OC)C1C3CCCCC3CCN1CC2 (stereo unspecified) | > 100 | –
NC(=O)c1c(NC(=O)c2ccccc2)sc2c1CCC(=O)C2 | 11.5 | 1.82
COc1cc(O)c2c(c1)C(=O)c1cc3c(c(O)c1C2=O)C(OC1OC(C)C(OC)C(O)C1OC)C(OC)C(C)(O)C3=O (stereo unspecified) | 14.5 | –
COc1cnc2c(c1)C(=O)c1c-2n(CCCN2CCOCC2)c(=O)c2cc(Cl)ccc12 | > 100 | > 100
